Laboratory results reported in patent US12049469B2, “Compound and structural body for detecting hydrogen sulfide” (CANON KABUSHIKI KAISHA, priority 2020, dated 2024).

Legend:
[1] = Fluorescence intensity change of compound solution on addition of sodium sulfide (hydrogen sulfide donor) in phosphate-buffered saline; details: for ΔF0 (0 mM sodium sulfide), amount of change in fluorescence intensity / ΔF (0.2 mM sodium sulfide), amount of change in fluorescence intensity F2−F1: compound 5 μM in 1× phosphate-buffered saline pH 7.4; for ΔF0 (0 mM sodium sulfide), amount of change in fluorescence intensity: 10 minutes; for ΔF (0.2 mM sodium sulfide), amount of change in fluorescence intensity F2−F1: 10 minutes after addition; for ΔF − ΔF0, difference in amount of change in fluorescence intensity in presence or absence of sodium sulfide: compound 5 μM in PBS pH 7.4, 0.2 mM vs 0 mM sodium sulfide; for Sensitivity: grade based on ΔF−ΔF0, A to C acceptable, D unacceptable
Description: The compound 1 was added to 1× phosphate-buffered saline (3 mL, pH 7.4) at a concentration of 5 μM. The fluorescence intensity of the solution was immediately measured with a fluorescence spectrophotometer F-4500 (manufactured by Hitachi High-Technologies Corporation). Sodium sulfide serving as a hydrogen sulfide donor was then added to the solution at 0.2 mM. After standing for 10 minutes, the fluorescence intensity of the solution was measured. The fluorescence intensity before the addition of sodium sulfide was denoted as F1, and the fluorescence intensity 10 minutes after the addition of sodium sulfide was denoted as F2. The amount of change in fluorescence intensity (ΔF) due to the addition of sodium sulfide was calculated using the formula F2−F1. The concentration of sodium sulfide was changed to 0 mM, and the amount of change in fluorescence intensity (ΔF0) of the solution was calculated in the same manner. The difference in the amount of change in fluorescence intensity (ΔF−ΔF0) in the presence or absence of sodium sulfide was calculated.
The evaluation is based on the following criteria in the exemplary embodiments of the present disclosure. A to C are acceptable levels, and D is an unacceptable level.

[2] = Behaviour of detection material in aqueous solution (precipitation, water solubility); assay type: physicochemical
Text: To detect hydrogen sulfide and metabolites in an aqueous specimen, such as a biological sample, the present inventors have examined whether the compound disclosed as a detection material in Non Patent Literature 1 can detect hydrogen sulfide in neutral phosphate-buffered saline.

Row | Compound | ΔF0 (0 mM sodium sulfide), amount of change in fluorescence intensity [1] | ΔF (0.2 mM sodium sulfide), amount of change in fluorescence intensity F2−F1 [1] | ΔF − ΔF0, difference in amount of change in fluorescence intensity in presence or absence of sodium sulfide [1] | Sensitivity [1] | Precipitate or aggregate formation in solution ([2]; neutral phosphate-buffered saline) | Water solubility (comparison) ([2]; compared with o-methyl fluorescein)
1 | CN(C)c1ccc(/N=N/c2ccc(C(=O)NCCCOC(=O)/C(C#N)=C/c3ccccc3C(=O)Oc3ccc4c(c3)Oc3cc(O)ccc3C43OC(=O)c4ccccc43)cc2)cc1 (stereo not drawn) [Compound 1] | 1.1 | 42.8 | 41.7 | A (ΔF−ΔF0 is 40 or more) | – | –
2 | COC(=O)/C(C#N)=C/c1ccccc1C(=O)Oc1ccc2c(c1)Oc1cc(OC)ccc1C21OC(=O)c2ccccc21 (stereo not drawn) [Compound 2, reference compound] | −0.4 | 11.4 | 11.8 | D (ΔF−ΔF0 is less than 15) | a precipitate or aggregate of the detection material is formed in the solution | –
3 | CN(C)c1ccc(/N=N/c2ccc(C(=O)NCCCOC(=O)/C(C#N)=C/c3ccccc3C(=O)Oc3ccc4c(c3)Oc3cc(O)ccc3C43OC(=O)c4cc(NC(=S)NCC(=O)O)ccc43)cc2)cc1 (stereo not drawn) [Compound 3] | 6.8 | 36.9 | 30.1 | B (ΔF−ΔF0 is 25 or more and less than 40) | – | –
4 | CN(C)c1ccc(/N=N/c2ccc(C(=O)NCCCOC(=O)/C(C#N)=C/c3ccccc3C(=O)Oc3cc4c(cc3Cl)C3(OC(=O)c5ccccc53)c3cc(Cl)c(O)cc3O4)cc2)cc1 (stereo not drawn) [Compound 4] | 4.9 | 10.3 | 5.4 | D (ΔF−ΔF0 is less than 15) | – | –
5 | COCCOCCOCCOCCNC(=S)Nc1ccc2c(c1)C(=O)OC21c2ccc(O)cc2Oc2cc(OC(=O)c3ccccc3/C=C(\C#N)C(=O)OCCCNC(=O)c3ccc(/N=N/c4ccc(N(C)C)cc4)cc3)ccc21 (stereo not drawn) [Compound 5] | 1.2 | 42.3 | 41.1 | A (ΔF−ΔF0 is 40 or more) | – | –
6 | CN(C)c1ccc(/N=N/c2ccc(C(=O)NCCCOC(=O)/C(C#N)=C/c3ccccc3C(=O)Oc3cc4c(cc3F)C3(OC(=O)c5ccccc53)c3cc(F)c(O)cc3O4)cc2)cc1 (stereo not drawn) [Compound 6] | 13.3 | 34.0 | 20.7 | C (ΔF−ΔF0 is 15 or more and less than 25) | – | –
7 | CN(C)c1ccc(/N=N/c2ccc(C(=O)NCCCOC(=O)/C(C#N)=C/c3ccccc3C(=O)Oc3ccc4c(c3)Oc3cc(O)ccc3C43OC(=O)c4c(Cl)c(Cl)c(Cl)c(Cl)c43)cc2)cc1 (stereo not drawn) [Compound 7] | 2.2 | 8.8 | 6.5 | D (ΔF−ΔF0 is less than 15) | – | –
8 | O=C1OC2(c3ccc(O)cc3Oc3cc(O)ccc32)c2ccccc21 [fluorescein] | – | – | – | – | – | higher water solubility than o-methyl fluorescein
